The subject of experiment [1] is BasC Y236F mutant. As to the kind of experiment: [3H]L-alanine transport in BasC Y236F proteoliposomes. It is filed as biochemical, Carnobacterium sp AT7. On the procedure: (§1) BasC was overexpressed as a C-terminal fusion with GFP in E. coli BL21 Star (DE3) cells grown in LB media. Single point mutations (Supplementary Table 2) were introduced using the QuikChange site-directed mutagenesis kit (Stratagene, San Diego, CA). All mutations were verified by sequencing. Expression was induced with 0.1 mM isopropyl-ß-D-thiogalactopyranoside at 37 °C for 22 h. Cells were harvested at 5000 × g for 15 min at 4 °C and stored at −80 °C until use. Cell pellets were thawed and resuspended in 20 mM Tris-Base, 150 mM NaCl, pH 7.4. Cells were pelleted again at 5000 × g for 15 min at 4 °C, resuspended in lysis buffer (20 mM Tris-Base, 350 mM NaCl, pH 7.4, 1 mM pefabloc and complete mini protease inhibitor cocktail) (Roche, Basel Switzerland) and then broken using a Cell Disruptor (four cycles at 20,000 psi; Constant Systems Ltd., Daventry, UK). Cell debris was removed by centrifugation (15,000 × g for 1 h at 4 °C), and the supernatant was subjected to ultracentrifugation (200,000 × g for 2 h at 4 °C). The membrane pellet was resuspended in 20 mM Tris-Base, 150 mM NaCl, pH 7.4 and 10% glycerol at a protein concentration of 8–12 mg ml^−1, and then frozen in liquid nitrogen and stored at −80 °C until use.
(§2) BasC-GFP protein was reconstituted in E. coli polar lipids (Sigma-Aldrich, Madrid, Spain), as previously described. Lipids were dried under N2 and suspended in reconstitution buffer (20 mM Tris-Base, 150 mM NaCl, pH 7.4). The suspension was sonicated to clarity and purified BasC protein was added to reach the desired protein to lipid ratio of 1:100 (w:w). To destabilize the liposomes, 1.25% ß-D-octylglucoside was added and the mixture was incubated on ice with occasional agitation for 5 min. DDM and ß-D-octylglucoside were removed by dialysis for 40 h at 4 °C against 100 volumes of dialysis buffer. Proteoliposome (PL) suspensions were frozen in liquid N2 and stored at −80 °C until use.
(§3) For uptake experiments, the desired intraliposomal amino acid concentration was added to the PL suspension, which was then subjected to three freeze/thaw cycles. The extraliposomal amino acid content was then removed by ultracentrifugation (100,000 × g for 1 h at 4 °C) and PLs were resuspended to one-third of the initial volume with reconstitution buffer. Amino acid uptake assays were initiated after mixing 10 μl of cold PLs with 180 μl of transport buffer (20 mM Tris-Base, 150 mM NaCl, pH 7.4 plus 0.5–1 µCi/180 µl of radiolabeled L-amino acid (Perkin Elmer, Waltham, MA)) supplemented with the unlabeled amino acid to the desired concentration. This mixture was then incubated at room temperature for the indicated periods. […] Filters were then washed twice with 2 ml of stop buffer and dried, and the trapped radioactivity was counted. Transport measured in PLs containing no amino acid was subtracted from each data point to calculate the net exchange. […] BasC protein in PLs was determined by Coomassie blue staining in SDS-PAGE gels compared with known amounts of BasC in DDM micelles, determined by BCA assay (Pierce, Rockford, IL) and loaded in the same gel.

The target of experiment [2] is BasC Y236F mutant. Description: Thermostability-based L-alanine binding assay, Y236F. Details: species or system Carnobacterium sp AT7. The conditions noted are these: for Kd Y236F binding curve, normalized signal: n=1-3. How it is done:
GFP-fused BasC proteins purified in DM were incubated for 10 min at 4–60 °C (Y236F and K154A mutants) or 4–70 °C (wild-type). In total, 200 µl of 2 mg ml^−1 protein was used for each temperature point. Protein was then centrifuged at 186,000 × g for 30 min. […] Fractions (200 µl) were collected and measured for GFP fluorescence. The peak heights were normalized to those of samples incubated at 4 °C and were fit to the Hill equation using the GraphPad Prism 4 program (GraphPad Software Inc., San Diego, CA). Melting temperatures (Tm) were determined by fitting the curves to a sigmoidal dose-response equation, as previously described.
BasC-GFP proteins were then incubated at the calculated Tm for 10 min and centrifuged at 186,000 × g for 30 min. […] Binding affinities were determined by fitting the curves to a sigmoidal dose-response equation.

For the next experiment, the system named is BasC K154A mutant. As to the kind of experiment: [3H]L-alanine transport in BasC K154A proteoliposomes. Format: biochemical, Carnobacterium sp AT7. Details: V/[L-Ala]: unit not given here. The conditions noted are these: for V/[L-Ala]: Eadie-Hofstee, n=1-3 and mean. On the procedure: as §1, §2, §3

Where “and” joins values, the source holds several entries; their conditions need not be identical. Equal entries are not always repeated. Where two headings read alike, the source gives them in different places.

What is called Km is the substrate concentration at which the rate is half of its maximum.

Regarding `C[C@H](N)C(=O)O` [L-alanine], the “10 µM [3H]L-alanine/4 mM L-alanine exchange normalized to wild-type” value in the experiment on BasC Y236F mutant [1] (BasC Y236F in PLs, WT = 100, n=1-3 and mean) is 116.03 and 123.34 and 111.98 and 142.02. The values for the Vmax with BasC Y236F mutant [1] (Y236F) and in the experiment with BasC K154A mutant were 4.58 ± 0.17 pmols L-alanine µg protein^−1 s^−1 and 0.32 ± 0.04 pmols L-alanine µg protein^−1 s^−1, respectively. Besides, in the experiment on BasC Y236F mutant [1] (Y236F), the “increase of cytoplasmic apparent affinity vs. wild-type BasC” value was ~ 4 fold. In the experiment with BasC Y236F mutant [1] (Y236F mutant), the “saturation of the transporter at 4 mM intraliposomal L-alanine” value is reported as “fully saturated”. The increase in function result with BasC Y236F mutant [1] (Y236F vs wild-type, extracellular 10 μM [3H]L-alanine against 4 mM intraliposomal L-alanine) was “about 20%”. Also, the Michaelis constant (Km) amounted to 50.2 ± 3.44 µM in the experiment on BasC Y236F mutant [1] (extracellular side, Y236F, read-out: Km (o)); 560 ± 110 µM in the experiment with BasC Y236F mutant [1] (intracellular side, Y236F, read-out: Km (i)); 474 ± 42 µM with BasC K154A mutant (extracellular side, 5 µM Nb74, read-out: Km (o)); 2040 ± 370 µM in the experiment on BasC K154A mutant (intracellular side, 5 µM Nb74, read-out: Km (i)). Also, the Kd on BasC Y236F mutant [2] (Y236F, incubated at Tm, L-alanine 0–200 mM, read-out: KD (apparent, thermostability-based)) is 42.3 ± 5 mM; at BasC Y236F mutant [2] (individual experiments n=1, n=2, n=3, read-out: Apparent Kd Y236F), 44.1 mM and 36.7 mM and 46.2 mM; on BasC Y236F mutant [2] (mean of n=3, read-out: Apparent Kd Y236F, mean) it was 42.3 mM. For the same compound, the “Kd Y236F binding curve, normalized signal” value on BasC Y236F mutant [2] ([L-Alanine] 6.25 mM) was 22.582 and 17.176 and 16.654; at BasC Y236F mutant [2] ([L-Alanine] 12.50 mM) it was 33.547 and 26.076 and 17.575; at BasC Y236F mutant [2] ([L-Alanine] 25 mM) it was 44.758 and 42.547 and 31.773; at BasC Y236F mutant [2] ([L-Alanine] 50 mM) it was 72.230 and 70.914 and 57.702; on BasC Y236F mutant [2] ([L-Alanine] 100 mM), 89.225 and 96.379 and 94.240; at BasC Y236F mutant [2] ([L-Alanine] 150 mM) it was 94.446 and 95.445 and 86.456. For the same compound, on BasC Y236F mutant [2] ([L-Alanine] 200 mM), the “Kd Y236F binding curve, normalized signal” value was 100.000. The “reduction of Vmax vs. wild-type” value in the experiment on BasC K154A mutant is reported as ~ 10 fold. Besides, the “reduction of extracellular apparent affinity vs. wild-type” value in the experiment with BasC K154A mutant is on record as ~ 10 fold. Moreover, the “V/[L-Ala]” value in the experiment on BasC K154A mutant (extracellular side, L-alanine 100 μM) was 0.0007 and 0.0010 and 0.0009; in the experiment on BasC K154A mutant (extracellular side, L-alanine 500 μM), 0.000458 and 0.000473 and 0.0005.
